Columns and labels:
[1] = target: JAK1 (Homo sapiens (Human), UniProt P23458); experiment: Biochemical JAK kinase assay (LanthaScreen), JAK1; conditions: for Ki: read-out: JAK1 pKi (converted)
Description: (§1) A panel of four LanthaScreen JAK biochemical assays (JAK1, 2, 3 and Tyk2) were carried in a common kinase reaction buffer (50 mM HEPES, pH 7.5, 0.01% Brij-35, 10 mM MgCl2, and 1 mM EGTA). Recombinant GST-tagged JAK enzymes and a GFP-tagged STAT1 peptide substrate were obtained from Life Technologies.
(§2) Serially diluted compounds were pre-incubated with each of the four JAK enzymes and the substrate in white 384-well microplates (Corning) at ambient temperature for 1 h. ATP was subsequently added to initiate the kinase reactions in 10 μL total volume, with 1% DMSO. The final enzyme concentrations for JAK1, 2, 3 and Tyk2 are 4.2 nM, 0.1 nM, 1 nM, and 0.25 nM respectively; the corresponding Km ATP concentrations used are 25 μM, 3 μM, 1.6 μM, and 10 μM; while the substrate concentration is 200 nM for all four assays. Kinase reactions were allowed to proceed for 1 hour at ambient temperature before a 10 μL preparation of EDTA (10 mM final concentration) and Tb-anti-pSTAT1 (pTyr701) antibody (Life Technologies, 2 nM final concentration) in TR-FRET dilution buffer (Life Technologies) was added. The plates were allowed to incubate at ambient temperature for 1 h before being read on the EnVision reader (Perkin Elmer). Emission ratio signals (520 nm/495 nm) were recorded and utilized to calculate the percent inhibition values based on DMSO and background controls.
(§3) For dose-response analysis, percent inhibition data were plotted vs. compound concentrations, and IC50 values were determined from a 4-parameter robust fit model with the Prism software (GraphPad Software). Results were expressed as pIC50 (negative logarithm of IC50) and subsequently converted to pKi (negative logarithm of dissociation constant, Ki) using the Cheng-Prusoff equation.
(§4) Test compounds having a lower Ki value or higher pKi value in the four JAK assays show greater inhibition of JAK activity.

[2] = tested on: IL-13 induced STAT6 phosphorylation in BEAS-2B human lung epithelial cells; experiment: Cellular JAKI potency assay (BEAS-2B); assay type: cell-based; conditions: Homo sapiens, BEAS-2B, BEAS-2B cells, read-out: BEAS2B pIC50 (converted)
Description: The JAKI cellular potency assay was carried out by measuring inhibition of interleukin-13 (IL-13, R&D Systems) induced STAT6 phosphorylation in BEAS-2B human lung epithelial cells (ATCC). BEAS-2B cells were grown at 37° C. in a 5% CO2 humidified incubator in 50% DMEM/50% F-12 medium (Life Technologies) supplemented with 10% FBS (Hyclone), 100 U/mL penicillin, 100 μg/mL streptomycin (Life Technologies), and 2 mM GlutaMAX (Life Technologies). On day 1 of the assay, cells were seeded at a 7,500 cells/well density in white poly-D-lysine-coated 384-well plates (Corning) with 25 μL medium and were allowed to adhere overnight in the incubator. On day 2 of the assay, the medium was removed and replaced with 12 μL of assay buffer (Hank's Balanced Salt Solution/HBSS, 25 mM HEPES, and 1 mg/ml bovine serum albumin/BSA) containing dose-responses of test compounds. Compounds were serially diluted in DMSO and then diluted another 1000-fold in media to bring the final DMSO concentration to 0.1%. Cells were incubated with test compounds at 37° C. for 1 h and followed by the addition of 12 μl of pre-warmed IL-13 (80 ng/mL in assay buffer) for stimulation. After incubating at 37° C. for 30 min, the assay buffer (containing compound and IL-13) was removed, and 10 μL of cell lysis buffer (25 mM HEPES, 0.1% SDS, 1% NP-40, 5 mM MgCl2, 1.3 mM EDTA, 1 mM EGTA, supplemented with Complete Ultra mini protease inhibitors and PhosSTOP from Roche Diagnostics). The plates were shaken at ambient temperature for 30 min before the addition of detection reagents. Levels of pSTAT6 were measured using the AlphaLISA SureFire Ultra pSTAT6 (Tyr641) assay kit from PerkinElmer. For dose-response analysis, percent inhibition data were plotted vs. compound concentrations, and IC50 values were determined from a 4-parameter robust fit model with the Graphpad Prism software. Results are expressed as the negative logarithm of the IC50 value, pIC50.
Test compounds having a lower IC50 value or higher pIC50 value in this assay show greater inhibition of IL-13 induced STAT6 phosphorylation.

[3] = target: JAK2 (Homo sapiens (Human), UniProt O60674); experiment: Biochemical JAK kinase assay (LanthaScreen), JAK2; conditions: for Ki: read-out: JAK2 pKi (converted)
Chain of JAK2 (O60674 whole entry): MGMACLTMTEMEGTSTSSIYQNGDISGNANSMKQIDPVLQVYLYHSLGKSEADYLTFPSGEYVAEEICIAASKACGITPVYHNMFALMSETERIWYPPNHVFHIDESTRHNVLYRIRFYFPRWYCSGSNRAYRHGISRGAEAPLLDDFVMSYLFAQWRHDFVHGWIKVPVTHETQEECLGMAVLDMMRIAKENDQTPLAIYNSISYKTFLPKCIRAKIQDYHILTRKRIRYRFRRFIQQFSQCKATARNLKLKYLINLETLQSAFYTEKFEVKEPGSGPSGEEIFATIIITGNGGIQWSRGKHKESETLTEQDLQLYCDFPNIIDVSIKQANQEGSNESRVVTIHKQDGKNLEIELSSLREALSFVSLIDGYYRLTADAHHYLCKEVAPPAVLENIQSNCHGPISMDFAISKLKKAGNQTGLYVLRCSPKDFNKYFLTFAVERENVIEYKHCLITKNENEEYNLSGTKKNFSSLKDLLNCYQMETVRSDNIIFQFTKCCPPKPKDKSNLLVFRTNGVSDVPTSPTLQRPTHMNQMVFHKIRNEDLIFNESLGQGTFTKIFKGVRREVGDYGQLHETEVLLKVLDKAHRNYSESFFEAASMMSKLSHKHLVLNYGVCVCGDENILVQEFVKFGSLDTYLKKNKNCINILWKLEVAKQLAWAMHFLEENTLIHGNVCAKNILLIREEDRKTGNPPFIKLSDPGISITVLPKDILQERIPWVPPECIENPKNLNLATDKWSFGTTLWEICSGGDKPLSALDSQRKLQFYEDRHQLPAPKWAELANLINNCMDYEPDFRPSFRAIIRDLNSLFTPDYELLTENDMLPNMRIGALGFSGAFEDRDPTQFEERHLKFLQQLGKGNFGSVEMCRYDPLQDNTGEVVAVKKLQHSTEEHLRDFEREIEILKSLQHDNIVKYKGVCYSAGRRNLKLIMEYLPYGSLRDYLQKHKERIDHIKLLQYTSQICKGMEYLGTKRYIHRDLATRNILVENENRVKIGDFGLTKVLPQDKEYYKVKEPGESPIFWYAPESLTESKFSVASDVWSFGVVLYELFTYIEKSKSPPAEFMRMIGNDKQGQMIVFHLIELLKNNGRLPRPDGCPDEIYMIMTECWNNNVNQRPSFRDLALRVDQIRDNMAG
Description: as §1, §2, §3, §4

Chain of JAK1 (P23458 whole entry): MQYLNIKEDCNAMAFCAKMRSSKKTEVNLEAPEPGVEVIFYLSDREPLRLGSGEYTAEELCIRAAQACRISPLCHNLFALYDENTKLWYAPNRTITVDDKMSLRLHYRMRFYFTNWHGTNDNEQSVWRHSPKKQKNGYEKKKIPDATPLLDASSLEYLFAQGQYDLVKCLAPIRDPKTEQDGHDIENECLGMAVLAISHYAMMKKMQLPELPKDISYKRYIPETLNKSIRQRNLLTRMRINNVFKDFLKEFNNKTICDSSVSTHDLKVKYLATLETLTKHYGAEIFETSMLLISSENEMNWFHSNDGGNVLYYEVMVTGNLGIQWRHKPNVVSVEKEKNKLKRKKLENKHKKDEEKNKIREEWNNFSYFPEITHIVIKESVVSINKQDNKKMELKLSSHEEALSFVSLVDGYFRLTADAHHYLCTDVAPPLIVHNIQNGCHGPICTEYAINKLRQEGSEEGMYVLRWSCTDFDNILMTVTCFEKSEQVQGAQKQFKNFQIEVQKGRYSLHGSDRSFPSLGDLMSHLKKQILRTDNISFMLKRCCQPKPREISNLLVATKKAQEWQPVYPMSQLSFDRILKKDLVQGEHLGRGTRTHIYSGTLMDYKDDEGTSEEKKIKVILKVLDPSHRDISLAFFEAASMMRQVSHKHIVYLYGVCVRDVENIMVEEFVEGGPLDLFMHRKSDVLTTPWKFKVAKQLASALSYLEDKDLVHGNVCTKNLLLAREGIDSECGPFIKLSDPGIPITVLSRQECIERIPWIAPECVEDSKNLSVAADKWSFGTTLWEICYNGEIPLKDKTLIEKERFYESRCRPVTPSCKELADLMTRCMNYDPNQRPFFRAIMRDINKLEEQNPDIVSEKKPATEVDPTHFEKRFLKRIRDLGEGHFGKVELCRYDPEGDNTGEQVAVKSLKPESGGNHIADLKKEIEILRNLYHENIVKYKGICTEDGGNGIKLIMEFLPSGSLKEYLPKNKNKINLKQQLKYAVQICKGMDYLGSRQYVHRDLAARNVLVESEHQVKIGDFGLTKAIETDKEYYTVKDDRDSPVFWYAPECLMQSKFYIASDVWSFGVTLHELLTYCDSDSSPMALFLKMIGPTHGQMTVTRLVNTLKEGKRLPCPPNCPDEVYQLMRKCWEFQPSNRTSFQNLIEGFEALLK

Row | Compound | Ki [1] | IC50 [2] | Ki [3] | JAK2 pKi [3] | JAK1 pKi [1]
1 | CCc1cc(O)ccc1-c1ccc2c(-c3nc(C4=C[C@@H](C)N[C@@H](C)C4)c[nH]3)n[nH]c2c1 (racemic) [Example 366] | 0.1 to 1 nM | 31.6 to 100 nM | 0.1 to 1 nM | – | –
2 | CCc1cc(O)ccc1-c1ccc2c(-c3nc(C4=CCCN(C5CC(O)C5)C4)c[nH]3)n[nH]c2c1F (stereo not drawn) [Compound 10, 3-ethyl-4-(7-fluoro-3-(4-(1-(3-hydroxycyclobutyl)-1,2,5,6-tetrahydropyridin-3-yl)-1H-imidazol-2-yl)-1H-indazol-6-yl)phenol] | 0.1 to 1 nM | 10 to 31.6 nM | 0.1 to 1 nM | – | –
3 | CCc1cc(O)ccc1-c1ccc2c(-c3nc(C4=CCN(Cc5cn[nH]c5)CC4)c[nH]3)n[nH]c2c1F [Compound 11, 4-(3-(4-(1-((1H-pyrazol-4-yl)methyl)-1,2,3,6-tetrahydropyridin-4-yl)-1H-imidazol-2-yl)-7-fluoro-1H-indazol-6-yl)-3-ethylphenol] | 0.1 to 1 nM | 10 to 31.6 nM | – | A (A represents a pKi value ≥10 (Ki≤0.1 nM)) | –
4 | CCc1cc(O)ccc1-c1ccc2c(-c3nc(C4=CCN(CC(=O)NC)CC4)c[nH]3)n[nH]c2c1F [Compound 12, 2-(4-(2-(6-(2-ethyl-4-hydroxyphenyl)-7-fluoro-1H-indazol-3-yl)-1H-imidazol-4-yl)-3,6-dihydropyridin-1(2H)-yl)-N-methylacetamide] | 0.1 to 1 nM | 10 to 31.6 nM | 0.1 to 1 nM | – | –
5 | CCc1cc(O)ccc1-c1ccc2c(-c3nc(C4=CCCN(C(C)C)C4)c[nH]3)n[nH]c2c1 [Example 28] | 0.1 to 1 nM | 3.16 to 10 nM | 0.1 to 1 nM | – | –
6 | CCc1cc(O)ccc1-c1ccc2c(-c3nc(C4=CCN(CCC(C)(C)O)CC4)c[nH]3)n[nH]c2c1 [Example 35] | – | 3.16 to 10 nM | – | A (A represents a pKi value ≥10 (Ki≤0.1 nM)) | A (A represents a pKi value ≥10 (Ki≤0.1 nM))
7 | CCc1cc(O)ccc1-c1ccc2c(-c3nc(C4=CCN(CCC(C)(C)O)CC4)c[nH]3)n[nH]c2c1F [Example 37] | 0.1 to 1 nM | 10 to 31.6 nM | 0.1 to 1 nM | – | –
8 | CCc1cc(O)ccc1-c1ccc2c(-c3nc(C4=CCN(C[C@@H](C)CO)CC4)c[nH]3)n[nH]c2c1F [Example 39] | 0.1 to 1 nM | 10 to 31.6 nM | 0.1 to 1 nM | – | –
9 | CCc1cc(O)ccc1-c1ccc2c(-c3nc(C4=CCN(C5CC(O)C5)CC4)c[nH]3)n[nH]c2c1F (stereo not drawn) [Example 40] | – | 10 to 31.6 nM | – | A (A represents a pKi value ≥10 (Ki≤0.1 nM)) | A (A represents a pKi value ≥10 (Ki≤0.1 nM))
10 | CCc1cc(O)ccc1-c1ccc2c(-c3nc(C4=CCCN(CCO)C4)c[nH]3)n[nH]c2c1 [Example 41] | 0.1 to 1 nM | 3.16 to 10 nM | – | A (A represents a pKi value ≥10 (Ki≤0.1 nM)) | –
11 | CCc1cc(O)ccc1-c1ccc2c(-c3nc(C4=CCCN(C5CC(O)C5)C4)c[nH]3)n[nH]c2c1 (stereo not drawn) [Example 43] | 0.1 to 1 nM | 3.16 to 10 nM | – | A (A represents a pKi value ≥10 (Ki≤0.1 nM)) | –
12 | CCc1cc(O)ccc1-c1ccc2c(-c3nc(C4=CCCN(C(C)CO)C4)c[nH]3)n[nH]c2c1F (stereo not drawn) [Example 46] | 0.1 to 1 nM | 10 to 31.6 nM | 0.1 to 1 nM | – | –
13 | CCc1cc(O)ccc1-c1ccc2c(-c3nc(C4=CCCN(C[C@H](C)CO)C4)c[nH]3)n[nH]c2c1F [Example 48] | 0.1 to 1 nM | 10 to 31.6 nM | 0.1 to 1 nM | – | –
14 | CCc1cc(O)ccc1-c1ccc2c(-c3nc(C4=CCCN(C[C@@H](C)CO)C4)c[nH]3)n[nH]c2c1F [Example 49] | 0.1 to 1 nM | 10 to 31.6 nM | 0.1 to 1 nM | – | –
15 | CCc1cc(O)ccc1-c1ccc2c(-c3nc(C4=CCN(C5CC(O)C5)C4)c[nH]3)n[nH]c2c1 (stereo not drawn) [Example 52] | – | 3.16 to 10 nM | – | A (A represents a pKi value ≥10 (Ki≤0.1 nM)) | A (A represents a pKi value ≥10 (Ki≤0.1 nM))
16 | CCc1cc(O)ccc1-c1ccc2c(-c3nc(C4=CCN(CCC(C)(C)O)C4)c[nH]3)n[nH]c2c1F [Example 55] | – | 3.16 to 10 nM | – | A (A represents a pKi value ≥10 (Ki≤0.1 nM)) | A (A represents a pKi value ≥10 (Ki≤0.1 nM))
17 | CCc1cc(O)ccc1-c1ccc2c(-c3nc(C4=CCN(CCCOC)CC4)c[nH]3)n[nH]c2c1 [Example 56] | – | 3.16 to 10 nM | – | A (A represents a pKi value ≥10 (Ki≤0.1 nM)) | A (A represents a pKi value ≥10 (Ki≤0.1 nM))
18 | CCc1cc(O)ccc1-c1ccc2c(-c3nc(C4=CCN(C(C)C5CC(O)C5)CC4)c[nH]3)n[nH]c2c1F (stereo not drawn) [Example 58] | – | 3.16 to 10 nM | – | A (A represents a pKi value ≥10 (Ki≤0.1 nM)) | A (A represents a pKi value ≥10 (Ki≤0.1 nM))
19 | CCc1cc(O)ccc1-c1ccc2c(-c3nc(C4=CCN(CCCOC)CC4)c[nH]3)n[nH]c2c1F [Example 59] | 0.1 to 1 nM | 10 to 31.6 nM | 0.1 to 1 nM | – | –
20 | CCc1cc(O)ccc1-c1ccc2c(-c3nc(C4=CCN(CC5COC5)CC4)c[nH]3)n[nH]c2c1F [Example 60] | 0.1 to 1 nM | 10 to 31.6 nM | – | A (A represents a pKi value ≥10 (Ki≤0.1 nM)) | –
21 | CCc1cc(O)ccc1-c1ccc2c(-c3nc(C4=CCN(C5CCOCC5)CC4)c[nH]3)n[nH]c2c1F [Example 61] | 0.1 to 1 nM | 10 to 31.6 nM | – | A (A represents a pKi value ≥10 (Ki≤0.1 nM)) | –
22 | CCc1cc(O)ccc1-c1ccc2c(-c3nc(C4=CCN(CC5CCCO5)CC4)c[nH]3)n[nH]c2c1F (stereo not drawn) [Example 62] | 0.1 to 1 nM | 10 to 31.6 nM | – | A (A represents a pKi value ≥10 (Ki≤0.1 nM)) | –
23 | CCc1cc(O)ccc1-c1ccc2c(-c3nc(C4=CCN(CC5CCCOC5)CC4)c[nH]3)n[nH]c2c1F (stereo not drawn) [Example 63] | 0.1 to 1 nM | 10 to 31.6 nM | 0.1 to 1 nM | – | –
24 | CCc1cc(O)ccc1-c1ccc2c(-c3nc(C4=CCCN(CCCOC)C4)c[nH]3)n[nH]c2c1 [Example 65] | 0.1 to 1 nM | 3.16 to 10 nM | 0.1 to 1 nM | – | –
25 | CCc1cc(O)ccc1-c1ccc2c(-c3nc(C4=CCCN(C(C)C5CC(O)C5)C4)c[nH]3)n[nH]c2c1F (stereo not drawn) [Example 66] | 0.1 to 1 nM | 10 to 31.6 nM | – | A (A represents a pKi value ≥10 (Ki≤0.1 nM)) | –
26 | CCc1cc(O)ccc1-c1ccc2c(-c3nc(C4=CCCN(CCCOC)C4)c[nH]3)n[nH]c2c1F [Example 67] | 0.1 to 1 nM | 10 to 31.6 nM | 0.1 to 1 nM | – | –
27 | CCc1cc(O)ccc1-c1ccc2c(-c3nc(C4=CCCN(CC5COC5)C4)c[nH]3)n[nH]c2c1F [Example 68] | 0.1 to 1 nM | 10 to 31.6 nM | 0.1 to 1 nM | – | –
28 | CCc1cc(O)ccc1-c1ccc2c(-c3nc(C4=CCCN(C(=O)[C@@H](N)C(C)(C)O)C4)c[nH]3)n[nH]c2c1 [Example 165] | 0.1 to 1 nM | 10 to 31.6 nM | – | – | –
29 | CCc1cc(O)ccc1-c1ccc2c(-c3nc(C4=C[C@H](CO)N(CCS(C)(=O)=O)C4)c[nH]3)n[nH]c2c1F [Example 279] | 0.1 to 1 nM | 31.6 to 100 nM | – | – | –
30 | CCc1cc(O)ccc1-c1ccc2c(-c3nc(C4=C[C@H](CO)N(CCS(=O)(=O)NC)C4)c[nH]3)n[nH]c2c1F [Example 280] | – | 100 to 316 nM | – | A (A represents a pKi value ≥10 (Ki≤0.1 nM)) | –
